Values after ≈ are worked out from the molar mass of the structure shown.
Tests used:
Format in all cases: functional
[Candida] auris = Antifungal activity against Candida auris 0030 assessed as microbial growth inhibition; conditions: Candidozyma auris
Candida albicans [1] = experiment: Synergetic antifungal activity against Candida albicans 0304103 assessed as microbial growth inhibition incubated for 24 hrs in the presence of (S)-4-(2-(6-(4-Chlorophenyl)-1-methyl-7,8,9,10-tetrahydro-4Hbenzo-[4,5]thieno(3,2-f)(1,2,4)triazolo(4,3-a)[1,4]diazepin-4-yl)-acetamido)-N-hydroxybenzamide by checkerboard microdilution method
Nakaseomyces glabratus = experiment: Synergetic antifungal activity against Candida glabrata 4408 assessed as microbial growth inhibition incubated for 24 hrs in the presence of (S)-4-((2-(6-(4-Chlorophenyl)-1-methyl-7,8,9,10-tetrahydro-4H-benzo-(4,5)thieno[3,2-f][1,2,4]triazolo(4,3-a)(1,4)diazepin-4-yl)-acetamido)-methyl)-N-hydroxybenzamide by checkerboard microdilution method
Candida albicans [2] = experiment: Antifungal activity against Candida albicans SC5314 assessed as fungal growth inhibition incubated for 24 hrs by broth dilution method
Candida albicans [3] = experiment: Synergetic antifungal activity against Candida albicans 10061 assessed as microbial growth inhibition incubated for 24 hrs in the presence of (S)-4-((2-(6-(4-Chlorophenyl)-1-methyl-7,8,9,10-tetrahydro-4H-benzo-(4,5)thieno[3,2-f][1,2,4]triazolo(4,3-a)(1,4)diazepin-4-yl)-acetamido)-methyl)-N-hydroxybenzamide by checkerboard microdilution method
Candida albicans [4] = experiment: Synergetic antifungal activity against Candida albicans 0304103 assessed as microbial growth inhibition incubated for 24 hrs in the presence of (+)-JQ1 by checkerboard microdilution method
Candida albicans [5] = experiment: Synergetic antifungal activity against Candida albicans 0304103 assessed as microbial growth inhibition incubated for 24 hrs in the presence of (S)-N-Hydroxy-2-(4-(2-(l-methyl-6-phenyl-4H-benzo[f](1,2,4)-triazolo-[4,3-a][1,4]diazepin 4-yl)acetamido)phenyl)acetamide by checkerboard microdilution method
Candida albicans [6] = experiment: Synergetic antifungal activity against Candida albicans 0304103 assessed as microbial growth inhibition incubated for 24 hrs in the presence of (S)-4-(2-(6-(4-Chloropheny1)-1-methy1-4H-benzo(f)(1,2,4)-triazolo(4,3-a)[1,4]diazepin-4-yl)acetamido)methyl)-N-hydroxybenzamide by checkerboard microdilution method
Candida albicans [7] = experiment: Synergetic antifungal activity against Candida albicans 0304103 assessed as microbial growth inhibition incubated for 24 hrs in the presence of (S)-N-Hydroxy-4-(2-(1-methyl-6-phenyl-4H-benzo[f](1,2,4)-triazolo-[4,3-a],[1,4]diazepin-4-yl)acetamido)benzamide by checkerboard microdilution method
Candida albicans [8] = experiment: Synergetic antifungal activity against Candida albicans 0304103 assessed as microbial growth inhibition incubated for 24 hrs in the presence of (S)-4-((2-(8-Chloro-6-(2-chloropheny1)-1-methyl-4H-benzo[f]-[1,2,4]-triazolo(4,3-a)(1,4]diazepin-4-yl)acetamido)methyl)-N-hydroxy-benzamide by checkerboard microdilution method
Candida albicans [9] = experiment: Synergetic antifungal activity against Candida albicans 0304103 assessed as microbial growth inhibition incubated for 24 hrs in the presence of (S, E)-N-Hydroxy-3-(4-(2-(1-methyl-6-(p-tolyl)-4H-benzo(f)-(1,2,4)triazolo(4,3-a)[1,4]diazepin-4-y)acetamido)phenyl)-acrylamide by checkerboard microdilution method

OC(Cn1cncn1)(Cn1cncn1)c1ccc(F)cc1F [FLUCONAZOLE]
MIC80 ([Candida] auris): > 64 µg/mL | MIC80 (Candida albicans [1]): 1 µg/mL | MIC80 (Nakaseomyces glabratus): 2 µg/mL | MIC80 (Candida albicans [2]): 0.5 µg/mL (≈ 1.63 µM) | MIC80 (Candida albicans [3]): 1 µg/mL | MIC80 (Candida albicans [4]): > 64 µg/mL | MIC80 (Candida albicans [5]): 4 µg/mL | MIC80 (Candida albicans [6]): 2 µg/mL | MIC80 (Candida albicans [7]): 2 µg/mL | MIC80 (Candida albicans [8]): 2 µg/mL | MIC80 (Candida albicans [9]): 2 µg/mL
